Measurements from patent US11925629B2, “Heterocyclic inhibitors of ERK1 and ERK2 and their use in the treatment of cancer” (Asana Biosciences, LLC, priority 2015, dated 2024).
Where two headings read alike, the source gives them in different places.

Assays:
Format in all cases: cell-based, human
[1] = tested on: HT-29 (colorectal carcinoma, B-RafV600E) cells; test: Cell proliferation (Alamar Blue) assay, HT-29; settings: Homo sapiens, HT-29, HT29 cells
Procedure, shortened: (§1)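 Fluorescence read-out (ex 540 nm, em 590 nm) after 1-3 h with 1× Alamar Blue, following 72 h compound exposure at 37° C./5% CO2. Compounds tested at typically 0.0005 to 10 uM, 3-fold steps; IC50 by sigmoidal dose-response (variable slope).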

[2] = tested on: HCT116 (colorectal carcinoma, K Ras G13D) cells; test: Cell proliferation (Alamar Blue) assay, HCT116; settings: Homo sapiens, HCT-116, HCT116 cells
Procedure, shortened: as §1

[3] = tested on: phosphorylation of RSK1(S380) (the downstream target of ERK1/2); test: Phospho-RSK1(S380) ELISA assay in HT-29 cells; settings: Homo sapiens, HT-29, HT29 cells, read-out: Mechanistic Cell Assay RSK1 Phos HT29 IC50
Procedure, shortened: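 IC50 values derive from a variable-slope sigmoidal fit of sandwich-ELISA signal (450 nm) for RSK1 Ser380 phosphorylation. The cells were B-RafV600E HT-29 colorectal line, exposed to serially diluted compound for 2 h after overnight seeding, then lysed at 4° C.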

Compound | IC50 [1] | IC50 [2] | IC50 ([3]; phospho-RSK1(S380)) | IC50 [3]
CC[C@@H](CO)Nc1ncc(C)c(-n2ccc(C(=O)NC(CO)c3cccc(Cl)c3)c2)n1 (stereo partly drawn) [Example 146, N-(1-(3-chloro-phenyl)-2-hydroxy-ethyl)-1-(2-(((S)-1-hydroxy-butan-2-yl)amino)-5-methyl-pyrimidin-4-yl)-1H-pyrrole-3-carboxamide] | 500 to 2500 nM | 500 to 2500 nM | 100 to 250 nM | 
O=C(NC(CO)c1ccccc1)c1ccn(-c2nc(Nc3ccccc3Cl)ncc2F)c1 (stereo not drawn) [Example 67, 1-(2-((2-chloro-phenyl)amino)-5-fluoro-pyrimidin-4-yl)-N-(2-hydroxy-1-phenylethyl)-1H-pyrrole-3-carboxamide] | > 2500 nM | > 2500 nM | 500 to 2500 nM | 
CC(=O)NCC(NC(=O)c1ccn(-c2nc(Nc3ccc4c(c3)OC(F)(F)O4)ncc2C)c1)c1cccc(Cl)c1 (stereo not drawn) [Example 158, N-(2-acetamido-1-(3-chloro-phenyl)-ethyl)-1-(2-((2,2-difluoro-benzo[d][1,3]dioxol-5-yl)-amino)-5-methyl-pyrimidin-4-yl)-1H-pyrrole-3-carboxamide] | 500 to 2500 nM | 500 to 2500 nM | > 2500 nM | 
COc1cc(F)ccc1Nc1ncc(C)c(-n2ccc(C(=O)NC(CO)c3cccc(Cl)c3)c2)n1 (stereo not drawn) [Example 142, N-(1-(3-chloro-phenyl)-2-hydroxy-ethyl)-1-(2-((4-fluoro-2-methoxy-phenyl)amino)-5-methyl-pyrimidin-4-yl)-1H-pyrrole-3-carboxamide] | 500 to 2500 nM | 500 to 2500 nM | 250 to 500 nM | 
Cc1cnc(NCc2cccnc2)cc1-n1ccc(C(=O)NC(CO)c2ccc(F)c(Cl)c2)c1 (stereo not drawn) [Example 193, N-(1-(3-chloro-4-fluorophenyl)-2-hydroxyethyl)-1-(5-methyl-2-((pyridin-3-ylmethyl)amino)pyridin-4-yl)-1H-pyrrole-3-carboxamide] | > 2500 nM | > 2500 nM | 500 to 2500 nM | 
CC[C@@H](CO)Nc1ncc(C)c(-n2ccc(C(=O)NC(CO)c3ccccc3)c2)n1 (stereo partly drawn) [Example 75, N-(2-hydroxy-1-phenylethyl)-1-(2-(((S)-1-hydroxy-butan-2-yl)amino)-5-methyl-pyrimidin-4-yl)-1H-pyrrole-3-carboxamide] | 500 to 2500 nM | > 2500 nM | 500 to 2500 nM | 
Cc1cnc(Nc2ccc3c(c2)OC(F)(F)O3)nc1-n1ccc(C(=O)NC(CO)c2ccccc2)c1 (stereo not drawn) [Example 63, 1-(2-((2,2-difluoro-benzo[d][1,3]dioxol-5-yl)amino)-5-methyl-pyrimidin-4-yl)-N-(2-hydroxy-1-phenylethyl)-1H-pyrrole-3-carboxamide] | 500 to 2500 nM | 500 to 2500 nM | 250 to 500 nM | 
CC[C@@H](CO)Nc1cc(-n2ccc(C(=O)NC(CO)c3cccc(Cl)c3)c2)ccn1 (stereo partly drawn) [Example 109, N-(1-(3-chloro-phenyl)-2-hydroxy-ethyl)-1-(2-(((S)-1-hydroxy-butan-2-yl)amino)pyridin-4-yl)-1H-pyrrole-3-carboxamide] | > 2500 nM | > 2500 nM | 250 to 500 nM | 
Cc1cnc(Nc2cccnc2)nc1-n1cc(NC(=O)N[C@H](CO)c2cccc(Cl)c2)cn1 [Example 23, (S)-1-(1-(3-chlorophenyl)-2-hydroxy-ethyl)-3-(1-(5-methyl-2-(pyridin-3-yl-amino)pyrimidin-4-yl)-1H-pyrazol-4-yl)urea] | 500 to 2500 nM | > 2500 nM | > 2500 nM | 
Cc1cnc(Nc2ccc(F)cc2)nc1-n1cc(C(=O)NC(CO)c2ccccc2)nc1C (stereo not drawn) [Cmpd 153, 1-(2-((4-fluoro-phenyl)amino)-5-methyl-pyrimidin-4-yl)-N-(2-hydroxy-1-phenylethyl)-2-methyl-1H-imidazole-4-carboxamide] | > 2500 nM | > 2500 nM | > 2500 nM | 
Cc1cnc(Nc2ccc(C3CCNCC3)cc2)nc1-n1ccc(C(=O)NC(CO)c2cccc(Cl)c2)c1 (stereo not drawn) [Example 215, N-(1-(3-chlorophenyl)-2-hydroxyethyl)-1-(5-methyl-2-((4-(piperidin-4-yl)phenyl)amino)pyrimidin-4-yl)-1H-pyrrole-3-carboxamide] | 250 to 500 nM | > 2500 nM | 500 to 2500 nM | 
O=C(NC(CO)c1cccc(Cl)c1)c1cn(-c2ccnc(Nc3ccccc3)c2)cn1 (stereo not drawn) [Cmpd 77, N-(1-(3-chloro-phenyl)-2-hydroxy-ethyl)-1-(2-(phenyl-amino)pyridin-4-yl)-1H-imidazole-4-carboxamide] | 500 to 2500 nM | > 2500 nM | 100 to 250 nM | 
O=C(Nc1cnn(-c2ccnc(Nc3ccccc3)n2)c1)N[C@H](CO)c1cccc(Cl)c1 [Example 12, (S)-1-(1-(3-chlorophenyl)-2-hydroxy-ethyl)-3-(1-(2-(phenyl-amino)pyrimidin-4-yl)-1H-pyrazol-4-yl) urea] | > 2500 nM | > 2500 nM | > 2500 nM | 
Cc1cnc(NC2CCOCC2)nc1-n1cnc(C(=O)NCc2sccc2CO)c1 [Example 284, N-((3-(hydroxymethyl)thiophen-2-yl)methyl)-1-(5-methyl-2-((tetrahydro-2H-pyran-4-yl)amino)pyrimidin-4-yl)-1H-imidazole-4-carboxamide] | 250 to 500 nM | 500 to 2500 nM | 500 to 2500 nM | 
Cc1cc(Nc2ncc(C)c(-n3ccc(C(=O)NC(CO)c4cccc(Cl)c4)c3)n2)ccc1C1CCNCC1 (stereo not drawn) [Example 182, N-(1-(3-chlorophenyl)-2-hydroxyethyl)-1-(5-methyl-2-((3-methyl-4-(piperidin-4-yl)phenyl)amino)pyrimidin-4-yl)-1H-pyrrole-3-carboxamide] | 500 to 2500 nM | 250 to 500 nM | 500 to 2500 nM | 
Cc1cnc(Nc2ccc3c(c2)OCO3)nc1-n1ccc(C(=O)NC(CO)c2cccc(Cl)c2)c1 (stereo not drawn) [Example 42, 1-(2-(benzo[d][1,3]dioxol-5-ylamino)-5-methyl-pyrimidin-4-yl)-N-(1-(3-chloro-phenyl)-2-hydroxy-ethyl)-1H-pyrrole-3-carboxamide] | 250 to 500 nM | 250 to 500 nM | 500 to 2500 nM | 
Cc1cnc(Nc2ccccc2)cc1-n1ccc(C(=O)NC(CO)c2ccccc2)c1 (stereo not drawn) [Cmpd 74, N-(2-hydroxy-1-phenylethyl)-1-(5-methyl-2-(phenyl-amino)pyridin-4-yl)-1H-pyrrole-3-carboxamide] | 500 to 2500 nM | > 2500 nM | 500 to 2500 nM | 

The remaining lines, values ahead:

IC50 [1] | IC50 [2] | IC50 ([3]; phospho-RSK1(S380)) | IC50 [3] | Compound
250 to 500 nM | 500 to 2500 nM | 500 to 2500 nM |  | COC[C@@H](NC(=O)c1ccn(-c2nc(Nc3ccc4c(c3)OCO4)ncc2C)c1)c1ccccc1 [Example 64, (S)-1-(2-(benzo[d][1,3]dioxol-5-ylamino)-5-methyl-pyrimidin-4-yl)-N-(2-methoxy-1-phenylethyl)-1H-pyrrole-3-carboxamide]
≤ 100 nM | ≤ 100 nM |  | ≤ 100 nM | Cc1cnc(NC2CCOCC2)nc1-n1cnc(C(=O)N[C@H](CNCC2CC2)c2cccc(Cl)c2)c1 [Example 339, 1-[5-Methyl-2-(tetrahydro-pyran-4-ylamino)-pyrimidin-4-yl]-1H-imidazole-4-carboxylic acid [(S)-1-(3-chloro-phenyl)-2-(cyclopropylmethyl-amino)-ethyl]-amide]
100 to 250 nM | 500 to 2500 nM | 250 to 500 nM |  | CC[C@@H](CO)Nc1ncc(C)c(-n2ccc(C(=O)N[C@H](CO)c3cccc(Cl)c3)c2)n1 [Example 219, N-((S)-1-(3-chlorophenyl)-2-hydroxyethyl)-1-(2-(((S)-1-hydroxybutan-2-yl)amino)-5-methylpyrimidin-4-yl)-1H-pyrrole-3-carboxamide]
≤ 100 nM | ≤ 100 nM |  | ≤ 100 nM | CC(=O)OCc1c(Cl)cccc1CNC(=O)c1cn(-c2nc(NC3CCOCC3)ncc2C)cn1 [Example 340, 2-chloro-6-((1-(5-methyl-2-((tetrahydro-2H-pyran-4-yl)amino)pyrimidin-4-yl)-1H-imidazole-4-carboxamido)methyl)benzyl acetate]
250 to 500 nM | > 2500 nM | 250 to 500 nM |  | Cc1cnc(N[C@H]2CCOC2)nc1-n1cnc(C(=O)N[C@H](CO)c2cccc(Cl)c2)c1 [Compound 192, N—((S)-1-(3-Chlorophenyl)-2-hydroxyethyl)-1-(5-methyl-2-(((S)-tetrahydrofuran-3-yl)amino)pyrimidin-4-yl)-1H-imidazole-4-carboxamide]
100 to 250 nM | 100 to 250 nM | 100 to 250 nM |  | Cc1cnc(Nc2ccc3c(c2)CCO3)nc1-n1ccc(C(=O)NC(CO)c2ccccc2)c1 (stereo not drawn) [Example 138, 1-(2-((2,3-dihydro-benzofuran-5-yl)amino)-5-methyl-pyrimidin-4-yl)-N-(2-hydroxy-1-phenylethyl)-1H-pyrrole-3-carboxamide]
100 to 250 nM | 500 to 2500 nM | 250 to 500 nM |  | Cc1cnc(Nc2ccc(F)cc2)nc1-n1cnc(C(=O)NC(CO)c2ccccc2)c1 (stereo not drawn) [Example 118, 1-(2-((4-fluoro-phenyl)amino)-5-methyl-pyrimidin-4-yl)-N-(2-hydroxy-1-phenylethyl)-1H-imidazole-4-carboxamide]
≤ 100 nM | ≤ 100 nM |  | ≤ 100 nM | Cc1cnc(NC2CCOCC2)nc1-n1cnc(C(=O)N[C@H](CNCCO)c2cccc(Cl)c2)c1 [Example 333, (S)-N-(1-(3-chlorophenyl)-2-((2-hydroxyethyl)amino)ethyl)-1-(5-methyl-2-((tetrahydro-2H-pyran-4-yl)amino)pyrimidin-4-yl)-1H-imidazole-4-carboxamide]
